Test results published in patent US8673347B2 (Creabilis Therapeutics S.p.A., priority 2005, dated 2014).
Where two headings read alike, the source gives them in different places.

Key:
[1] = Acute single dose toxicity study in mice, intraperitoneal route; assay type: in vivo; settings: for LD50 at 7 days: Balb/c, mouse, in vivo, ip, single dose intraperitoneal
Procedure: Observations, which included clinical signs and behavioral changes, were performed every 30 minutes in the first 6 hour following administration, and twice a day during the following 7 days.

MET = MET (Homo sapiens, UniProt P08581); assay: Kinase inhibition profile; assay type: biochemical; settings: 200 nM; read-out: inhibitory activity
Procedure: (§1) The preparation of CT327 and the reference compounds was conducted following a similar procedure. CT327 also was tested at a concentration of 200 nM.
(§2) The inhibitory activity of CT327 against the tested tyrosine kinase and serine/threonine kinases is shown in the Table a and b, respectively, reported in FIG. 9b.

FLT3 = FLT3 (Homo sapiens, UniProt P36888); assay: Kinase inhibition profile; assay type: biochemical; settings: 200 nM; read-out: inhibitory activity
Sequence of FLT3 (P36888 27-993, species assumed): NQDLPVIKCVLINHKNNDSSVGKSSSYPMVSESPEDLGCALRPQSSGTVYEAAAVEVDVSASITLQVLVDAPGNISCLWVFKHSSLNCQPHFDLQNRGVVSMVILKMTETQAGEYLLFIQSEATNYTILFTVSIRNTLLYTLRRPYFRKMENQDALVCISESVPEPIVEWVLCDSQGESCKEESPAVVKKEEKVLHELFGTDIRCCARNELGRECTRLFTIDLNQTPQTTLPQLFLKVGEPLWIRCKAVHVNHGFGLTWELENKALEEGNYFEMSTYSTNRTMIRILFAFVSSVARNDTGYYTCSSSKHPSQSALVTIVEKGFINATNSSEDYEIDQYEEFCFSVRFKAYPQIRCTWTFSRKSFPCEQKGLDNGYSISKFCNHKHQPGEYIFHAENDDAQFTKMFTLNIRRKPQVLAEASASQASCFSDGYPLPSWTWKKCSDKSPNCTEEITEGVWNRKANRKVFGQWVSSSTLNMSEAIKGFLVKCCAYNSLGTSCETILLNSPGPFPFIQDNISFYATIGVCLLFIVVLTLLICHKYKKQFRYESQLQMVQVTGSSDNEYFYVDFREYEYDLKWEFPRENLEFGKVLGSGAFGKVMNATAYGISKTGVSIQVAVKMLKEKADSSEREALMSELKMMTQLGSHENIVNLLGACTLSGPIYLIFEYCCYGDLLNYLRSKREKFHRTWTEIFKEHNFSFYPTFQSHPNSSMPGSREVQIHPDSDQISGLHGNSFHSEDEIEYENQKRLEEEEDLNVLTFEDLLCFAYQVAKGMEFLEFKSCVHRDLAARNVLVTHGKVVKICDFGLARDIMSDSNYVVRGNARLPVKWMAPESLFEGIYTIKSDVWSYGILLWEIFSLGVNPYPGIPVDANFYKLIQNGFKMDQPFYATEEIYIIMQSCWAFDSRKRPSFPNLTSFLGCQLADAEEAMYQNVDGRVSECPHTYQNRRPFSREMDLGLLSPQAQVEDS
Procedure: as §1, §2

KIT = KIT (Homo sapiens, UniProt P10721); assay: Kinase inhibition profile; assay type: biochemical; settings: 200 nM; read-out: inhibitory activity
Procedure: as §1, §2

TrkC = TrkC (Homo sapiens, UniProt Q16288); assay: Kinase inhibition profile; assay type: biochemical; settings: 200 nM; read-out: inhibitory activity
Sequence of TrkC (Q16288 32-839, species assumed): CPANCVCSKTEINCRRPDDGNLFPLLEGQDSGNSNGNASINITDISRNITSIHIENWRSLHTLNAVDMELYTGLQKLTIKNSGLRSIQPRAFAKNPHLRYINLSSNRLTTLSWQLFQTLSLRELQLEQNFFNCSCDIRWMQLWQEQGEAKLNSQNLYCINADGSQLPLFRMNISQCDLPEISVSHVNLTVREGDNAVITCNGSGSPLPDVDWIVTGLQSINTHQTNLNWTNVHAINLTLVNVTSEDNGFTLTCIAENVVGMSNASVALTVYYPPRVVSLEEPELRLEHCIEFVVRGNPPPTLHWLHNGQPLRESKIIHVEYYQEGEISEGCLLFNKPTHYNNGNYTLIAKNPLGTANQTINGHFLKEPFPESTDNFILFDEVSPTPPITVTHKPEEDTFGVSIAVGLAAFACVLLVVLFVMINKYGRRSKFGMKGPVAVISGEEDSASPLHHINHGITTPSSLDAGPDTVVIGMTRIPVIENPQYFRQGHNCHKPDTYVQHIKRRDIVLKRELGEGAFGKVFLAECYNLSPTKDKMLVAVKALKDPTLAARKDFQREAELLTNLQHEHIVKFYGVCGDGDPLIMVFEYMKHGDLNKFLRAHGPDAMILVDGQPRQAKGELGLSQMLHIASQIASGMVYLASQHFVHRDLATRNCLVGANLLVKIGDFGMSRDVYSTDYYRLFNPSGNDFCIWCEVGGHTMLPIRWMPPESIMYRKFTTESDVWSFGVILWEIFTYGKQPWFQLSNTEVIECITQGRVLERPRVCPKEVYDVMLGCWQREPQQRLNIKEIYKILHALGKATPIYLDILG
Procedure: as §1, §2

RET = RET (Homo sapiens, UniProt P07949); assay: Kinase inhibition profile; assay type: biochemical; settings: 200 nM; read-out: inhibitory activity
Sequence of RET (P07949 29-1114, species assumed): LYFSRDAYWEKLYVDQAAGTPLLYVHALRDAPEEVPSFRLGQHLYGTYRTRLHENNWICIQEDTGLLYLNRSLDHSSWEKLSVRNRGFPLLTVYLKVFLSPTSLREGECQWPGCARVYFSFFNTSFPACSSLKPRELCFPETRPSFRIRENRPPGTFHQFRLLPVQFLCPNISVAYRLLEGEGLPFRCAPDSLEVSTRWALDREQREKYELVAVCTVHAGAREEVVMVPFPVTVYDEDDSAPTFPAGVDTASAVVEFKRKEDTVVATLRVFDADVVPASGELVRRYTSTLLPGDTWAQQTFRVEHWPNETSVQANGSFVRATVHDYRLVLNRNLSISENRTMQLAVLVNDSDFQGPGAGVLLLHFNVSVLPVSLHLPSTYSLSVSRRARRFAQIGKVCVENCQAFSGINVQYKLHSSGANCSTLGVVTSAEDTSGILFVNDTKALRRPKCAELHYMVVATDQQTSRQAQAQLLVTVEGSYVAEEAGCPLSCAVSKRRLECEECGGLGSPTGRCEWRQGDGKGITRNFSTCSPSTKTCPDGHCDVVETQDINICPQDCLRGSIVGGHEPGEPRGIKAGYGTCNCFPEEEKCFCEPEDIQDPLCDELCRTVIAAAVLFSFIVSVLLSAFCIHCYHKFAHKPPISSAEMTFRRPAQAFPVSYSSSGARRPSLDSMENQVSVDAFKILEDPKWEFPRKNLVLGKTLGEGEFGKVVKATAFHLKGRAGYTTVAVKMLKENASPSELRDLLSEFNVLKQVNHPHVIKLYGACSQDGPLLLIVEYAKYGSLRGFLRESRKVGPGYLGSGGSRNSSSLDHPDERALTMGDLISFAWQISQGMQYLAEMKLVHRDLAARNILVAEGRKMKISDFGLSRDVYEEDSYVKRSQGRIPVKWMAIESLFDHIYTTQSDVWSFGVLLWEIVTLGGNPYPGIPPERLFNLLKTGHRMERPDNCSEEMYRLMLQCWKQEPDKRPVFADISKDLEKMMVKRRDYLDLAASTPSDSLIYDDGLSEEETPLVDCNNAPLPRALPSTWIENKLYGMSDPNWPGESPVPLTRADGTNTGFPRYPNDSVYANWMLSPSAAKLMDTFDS
Procedure: as §1, §2

PDGFRβ = PDGFRβ (Homo sapiens, UniProt P09619); assay: Kinase inhibition profile; assay type: biochemical; settings: 200 nM; read-out: inhibitory activity
Sequence of PDGFRβ (P09619 33-1106, species assumed): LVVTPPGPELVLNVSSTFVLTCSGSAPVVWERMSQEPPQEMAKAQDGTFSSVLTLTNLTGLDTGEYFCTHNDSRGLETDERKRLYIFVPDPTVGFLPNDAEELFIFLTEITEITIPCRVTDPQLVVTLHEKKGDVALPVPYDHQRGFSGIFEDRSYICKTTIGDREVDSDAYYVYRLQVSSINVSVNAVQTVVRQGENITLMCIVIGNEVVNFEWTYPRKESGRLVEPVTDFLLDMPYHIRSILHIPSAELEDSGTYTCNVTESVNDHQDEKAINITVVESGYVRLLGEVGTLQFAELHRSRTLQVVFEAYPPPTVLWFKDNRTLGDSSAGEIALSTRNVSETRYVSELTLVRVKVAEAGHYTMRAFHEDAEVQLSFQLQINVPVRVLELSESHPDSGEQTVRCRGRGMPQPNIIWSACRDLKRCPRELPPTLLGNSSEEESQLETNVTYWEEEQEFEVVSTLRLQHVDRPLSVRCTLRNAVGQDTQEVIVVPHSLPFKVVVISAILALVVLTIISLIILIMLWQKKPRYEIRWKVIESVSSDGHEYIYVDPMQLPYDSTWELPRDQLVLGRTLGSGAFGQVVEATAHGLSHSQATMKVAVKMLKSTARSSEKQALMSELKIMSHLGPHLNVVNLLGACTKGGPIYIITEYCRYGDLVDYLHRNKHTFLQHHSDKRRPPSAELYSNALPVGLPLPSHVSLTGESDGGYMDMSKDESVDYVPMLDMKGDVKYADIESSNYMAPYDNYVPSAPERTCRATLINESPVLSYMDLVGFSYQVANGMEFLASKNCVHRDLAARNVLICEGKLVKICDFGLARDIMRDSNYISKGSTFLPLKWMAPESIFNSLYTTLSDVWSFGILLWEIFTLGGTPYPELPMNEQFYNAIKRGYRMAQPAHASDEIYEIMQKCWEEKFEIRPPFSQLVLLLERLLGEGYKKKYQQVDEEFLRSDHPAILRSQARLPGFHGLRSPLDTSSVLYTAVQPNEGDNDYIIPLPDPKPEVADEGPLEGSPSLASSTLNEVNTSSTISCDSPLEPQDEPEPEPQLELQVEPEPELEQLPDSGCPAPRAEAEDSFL
Procedure: as §1, §2

TNK1 = TNK1 (Homo sapiens, UniProt Q13470); assay: Kinase inhibition profile; assay type: biochemical; settings: 200 nM; read-out: inhibitory activity
Procedure: as §1, §2

JNK2 = JNK2 (Homo sapiens, UniProt P45984); assay: Kinase inhibition profile; assay type: biochemical; settings: 200 nM; read-out: inhibitory activity
Procedure: as §1, §2

CHK1 = CHK1 (Homo sapiens, UniProt O14757); assay: Kinase inhibition profile; assay type: biochemical; settings: 200 nM; read-out: inhibitory activity
Procedure: as §1, §2

AurA = AurA (Homo sapiens, UniProt O14965); assay: Kinase inhibition profile; assay type: biochemical; settings: 200 nM; read-out: inhibitory activity
Procedure: as §1, §2

PDGFRα = PDGFRα (Homo sapiens, UniProt P16234); assay: Kinase inhibition profile; assay type: biochemical; settings: 200 nM; read-out: inhibitory activity
Sequence of PDGFRα (P16234 24-1089, species assumed): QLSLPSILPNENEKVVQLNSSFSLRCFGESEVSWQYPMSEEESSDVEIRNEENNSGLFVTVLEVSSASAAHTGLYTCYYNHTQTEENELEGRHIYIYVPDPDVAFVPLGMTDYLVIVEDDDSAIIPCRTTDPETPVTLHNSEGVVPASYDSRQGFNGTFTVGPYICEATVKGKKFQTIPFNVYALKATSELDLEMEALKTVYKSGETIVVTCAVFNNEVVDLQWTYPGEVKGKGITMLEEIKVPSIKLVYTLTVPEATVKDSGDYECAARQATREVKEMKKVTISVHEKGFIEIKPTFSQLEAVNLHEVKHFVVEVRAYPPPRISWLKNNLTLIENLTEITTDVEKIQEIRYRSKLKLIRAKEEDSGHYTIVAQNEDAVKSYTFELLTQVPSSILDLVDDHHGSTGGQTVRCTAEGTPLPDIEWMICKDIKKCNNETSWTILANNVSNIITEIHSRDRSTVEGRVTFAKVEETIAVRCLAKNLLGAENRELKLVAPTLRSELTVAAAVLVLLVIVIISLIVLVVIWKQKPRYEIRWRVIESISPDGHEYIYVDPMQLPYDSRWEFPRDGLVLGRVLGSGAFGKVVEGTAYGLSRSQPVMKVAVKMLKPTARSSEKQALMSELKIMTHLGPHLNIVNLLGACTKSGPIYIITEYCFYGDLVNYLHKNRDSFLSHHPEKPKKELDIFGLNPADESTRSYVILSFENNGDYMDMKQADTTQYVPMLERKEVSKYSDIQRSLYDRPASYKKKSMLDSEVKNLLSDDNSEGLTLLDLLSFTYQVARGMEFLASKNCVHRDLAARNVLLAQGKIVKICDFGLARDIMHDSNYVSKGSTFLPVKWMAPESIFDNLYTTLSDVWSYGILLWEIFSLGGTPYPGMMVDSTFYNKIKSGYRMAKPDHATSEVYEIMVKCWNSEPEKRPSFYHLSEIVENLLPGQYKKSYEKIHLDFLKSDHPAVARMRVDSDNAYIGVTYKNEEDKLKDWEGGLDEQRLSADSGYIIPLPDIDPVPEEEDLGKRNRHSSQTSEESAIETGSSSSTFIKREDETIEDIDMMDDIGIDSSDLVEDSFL
Procedure: as §1, §2

LPS-induced endotoxemia = assay: Plasma cytokines in mice after LPS-induced endotoxemia; assay type: in vivo; settings: parallel experiment, treated before LPS; versus vehicle
Procedure: A study was performed with the purpose to quantitatively determine a panel of 24 cytokines in the plasma of mice at different time points after LPS-induced endotoxemia and to compare the profiles obtained with those of CT327 pre-treated endotoxemic mice.
The animals were divided into two experimental groups (55 mice/group) that were treated following this schedule:
At time 0 both groups received a dose of LPS corresponding to 4 mg/kg, i.p.
The “treated” experimental group received a single dose of CT327 corresponding to 105.56 mg/kg, i.p. This dose was administered 15 minutes before LPS endotoxemia induction (time 0). At the same time the “control” group received an equivalent volume of vehicle solution.
Each experimental group was divided into 11 sub-groups with 5 mice/sub-group. Each sub-group was sacrificed at different time points and blood samples collected.
Time points for blood sample collection were: • Time: time 0 (basal); before LPS treatment • Time: +30 minutes; after LPS treatment • Time: +1 hours; after LPS treatment • Time: +2 hours; after LPS treatment • Time: +3 hours; after LPS treatment • Time: +6 hours; after LPS treatment • Time: +12 hours; after LPS treatment • Time: +18 hours; after LPS treatment • Time: +24 hours; after LPS treatment • Time: +48 hours; after LPS treatment • Time: +72 hours; after LPS treatment
Blood samples were collected in sodium citrate tubes (100 μl sodium citrate 0.1 M/900 μl of blood) and centrifuged at 1000 g at 4° C. for 10 minutes. Plasma samples were collected and 50 μl/sample were frozen at −80° C. until testing for multiple cytokines profiling. The samples were analyzed in double through the Bio-Plex System (Bio-Rad) by using the 23-plex panel at the Dept. of Genetics, Biology and Biochemistry, Torino University, led by Prof. Silengo. Plasma levels of the following cytokines were determined: IL-1a, IL-1b, IL-2, IL-3, IL-4, IL-5, IL-6, IL-10, IL-12(p40), IL-12(p70), IL-17, G-CSF, GM-CSF, IFN-γ, KC, MIP-1-α, RANTES, TNF-α, IL-9, IL-13, eotaxin, MCP-1, MIP-1-α.

human keratinocytes = assay: MTT-assay, antiproliferative activity on keratinocytes; assay type: cell-based
Procedure: A metabolic MTT-assay was performed as test of the cellular vitality. The MTT-assay was performed using a well known and validated protocol, whereby the results are quantified through a spectrophotometric lecture, the number of living cells being directly proportional to the quantity of the formazan product formed as reduction product of MTT ([3-(4,5-dimethylthiazol-2-yl)-2,5-diphenyltetrazoliumbromid]) (Mosmann T., Rapid colorimetric assay for cellular growth and survival: Application to proliferation and cytotoxicity assays. J. Immunol. Methods. 1983, Dec. 16, 65(1-2):55-63). In the present study, the MTT-assay was performed on subconfluent cultures of keratinocytes seeded in 96-well plates for cellular culture (8000 cells/well). After the cells have been exposed to the substance which has to be analyzed, the cells are incubated for 4 hours at 37° C. with MTT (0.05%) in serum-free keratinocyte growth medium (KGM Clonetics Corp. San Diego, Calif., USA). After solubilisation of the cells with detergents, the formation of the dyestuff formazan is detected using a spectrophotometer for multi-well plate at 540 nm. The results are given as optical density unit (OD). […]

SMILES: COC(=O)[C@]1(O)C[C@@H]2O[C@@]1(C)n1c3ccccc3c3c4c(c5c6ccccc6n2c5c31)C(=O)NC4 [Compound K-252a, K-252a]
- LD50 at 7 days ([1]; female mice, read-out: LD50): 41.4 mg/kg
- LD50 at 7 days ([1]; male mice, read-out: LD50): 37.7 mg/kg
- LD50 at 7 days ([1]; both sexes, males and females together, read-out: average LD50): 39 mg/kg
- survival ([1]; female mice, 45 mg/kg, five per group): One female survived out of the five
- survival ([1]; female mice, 60 mg/kg, five per group): one
- survival ([1]; female mice, doses higher than 60 mg/kg): lethal to all female mice
- survival ([1]; female mice, lowest dose (30 mg/Kg)): survived
- survival ([1]; male mice, 30 mg/Kg): survived
- survival ([1]; male mice, all doses above 30 mg/Kg, within the first 22 hours after dosing): found dead
- sedation ([1]; males and females, lowest dose (30 mg/Kg), disappeared within 8-10 hours): very mild/mild sedation
- inhibition at 0.2 µM (MET): 80 to 90%
- inhibition at 0.2 µM (FLT3): > 90%
- inhibition at 0.2 µM (KIT): 80 to 90%
- inhibition at 0.2 µM (TrkC): > 90%
- inhibition at 0.2 µM (RET): > 90%
- inhibition at 0.2 µM (PDGFRβ): > 90%
- inhibition at 0.2 µM (TNK1): > 90%
- inhibition at 0.2 µM (JNK2): > 90%
- inhibition at 0.2 µM (CHK1): > 90%
- inhibition at 0.2 µM (AurA): > 90%
- inhibition at 0.2 µM (PDGFRα): > 90%
- IFN-γ secretion in plasma (LPS-induced endotoxemia): significant reduction
- MCP-1 secretion in plasma (LPS-induced endotoxemia): significant reduction
- MIP-α secretion in plasma (LPS-induced endotoxemia): significant reduction
- RANTES secretion in plasma (LPS-induced endotoxemia): significant reduction
- TNF-α secretion in plasma (LPS-induced endotoxemia): significant reduction
- concentration with statistically significant antiproliferative action (human keratinocytes; any contact time (1, 2, 4 h), cell counting after 48 h): 200 nM
- antiproliferative activity (human keratinocytes; contact 1, 2, 4 h, cell counting after 96 h): obtained for any tested concentration and any contact time
